Reference: patent publication US10494332B2, “Protein tyrosine phosphatases or SHP2 inhibitors and uses thereof” (Indiana University Research and Technology Corporation, priority 2015, dated 2019)
“Also recorded” adds a separate entry of the source. Like-named read-outs stand apart in the source and are kept apart here.

Key:
[1] = molecular target: mPTPA (Mycobacterium tuberculosis, UniProt P9WIA1); assay: biochemical; settings: IC50 mPTPA
[2] = molecular target: T1, LMWPTP (Homo sapiens, UniProt P24666); assay: PTP inhibition assay (pNPP); assay type: biochemical
T1 sequence (P24666 1-158): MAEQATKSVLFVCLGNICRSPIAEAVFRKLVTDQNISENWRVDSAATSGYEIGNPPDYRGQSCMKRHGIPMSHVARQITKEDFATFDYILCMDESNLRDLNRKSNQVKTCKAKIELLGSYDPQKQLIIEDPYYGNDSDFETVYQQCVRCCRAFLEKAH

[3] = molecular target: T2, PP5 (Homo sapiens, UniProt P53041); assay: biochemical
T2 sequence (P53041 1-499): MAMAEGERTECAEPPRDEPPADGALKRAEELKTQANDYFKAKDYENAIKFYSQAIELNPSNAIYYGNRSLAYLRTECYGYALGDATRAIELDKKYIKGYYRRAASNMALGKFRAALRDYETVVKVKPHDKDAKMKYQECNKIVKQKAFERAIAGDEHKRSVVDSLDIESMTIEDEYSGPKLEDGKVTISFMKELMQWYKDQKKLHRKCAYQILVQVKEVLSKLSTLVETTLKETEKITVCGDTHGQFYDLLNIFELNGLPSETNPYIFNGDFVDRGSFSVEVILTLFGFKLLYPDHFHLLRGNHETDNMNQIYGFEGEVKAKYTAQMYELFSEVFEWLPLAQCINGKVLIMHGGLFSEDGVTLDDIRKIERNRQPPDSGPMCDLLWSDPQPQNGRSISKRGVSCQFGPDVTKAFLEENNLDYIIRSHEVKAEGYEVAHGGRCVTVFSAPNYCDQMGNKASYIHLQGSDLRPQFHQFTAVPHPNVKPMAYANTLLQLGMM

[4] = molecular target: T3, SHP2 (Homo sapiens, UniProt Q06124); assay: SHP2 phosphatase inhibition assay (pNPP); assay type: biochemical; settings: for IC50: Example 9: SHP2 catalytic domain 20 nM, pNPP 3 mM, pH 7.0, 25° C., read-out: IC50 SHP2
T3 sequence (Q06124 224-528): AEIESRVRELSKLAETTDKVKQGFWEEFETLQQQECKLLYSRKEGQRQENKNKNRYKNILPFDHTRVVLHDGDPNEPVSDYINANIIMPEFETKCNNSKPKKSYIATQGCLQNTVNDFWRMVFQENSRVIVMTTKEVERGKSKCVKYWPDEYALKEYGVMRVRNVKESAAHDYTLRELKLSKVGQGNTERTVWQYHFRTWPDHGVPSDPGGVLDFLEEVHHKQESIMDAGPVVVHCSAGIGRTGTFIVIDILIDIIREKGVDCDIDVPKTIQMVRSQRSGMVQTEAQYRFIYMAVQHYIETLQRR

[5] = tested on: H1975 non-small cell lung cancer (NSCLC) cell line; assay: MTT cell proliferation assay; assay type: cell-based, human; settings: 20 μM and 40 μM, 2 days
Description: (§1) Human non-small cell lung carcinoma cell line H1975 was cultured at 37° C. and 5% CO2 in RPMI-1640 (Corning) supplemented with 10% fetal bovine serum (HyClone). Human breast cancer cell line MDA-MB-231 was cultured in DMEM supplemented with 10% fetal bovine serum. For cell proliferation assay, 2˜3×10^3 cells were seeded in each well of 96-well plates. After treating cells with compounds for 2 days, cells were incubated with 50 μg/ml MTT (3-(4,5-Dimethylthiazol-2-yl)-2,5-diphenyltetrazolium bromide) for ˜3-4 hours. Then, the culture medium was removed, DMSO was added to dissolve the formazan crystals. Wells containing only media were used for background correction. The optical density was measured spectrophotometrically at 540 nm. For signaling analysis, cells were serum-starved overnight followed by treatment with vehicle or compounds for 3 hours, and then either left un-stimulated or stimulated with 5 μg/ml EGF or 10 nM PMA (Sigma) for indicated time. Cells were lysed and the lysates were electrophoresed on a 10% polyacrylamide gel, and then transferred to a nitrocellulose membrane, and probed with anti-phospho-ERK1/2 and anti-ERK1/2 (Cell Signaling) antibodies followed by incubation with horseradish peroxidase-conjugated secondary antibodies. The blots were developed by the enhanced chemiluminescence technique using the SuperSignal West Pico Chemiluminescent substrate (Pierce).

[6] = molecular target: PTPμ (Homo sapiens, UniProt P28827); assay: biochemical
[7] = tested on: MDA-MB-231 breast cancer cell line; assay: MTT cell proliferation assay; assay type: cell-based, human; settings: 20 μM and 40 μM, 2 days
Description: as §1

[8] = molecular target: TbPTP1 (Trypanosoma brucei brucei, UniProt Q38AT7); assay: PTP inhibition assay (pNPP); assay type: biochemical; settings: pH 7.0, 25° C.
[9] = molecular target: FAP1 (Homo sapiens, UniProt Q12923); assay: PTP inhibition assay (pNPP); assay type: biochemical; settings: IC50 FAP1
[10] = molecular target: T4, VHX (Homo sapiens, UniProt Q9NRW4); assay: PTP inhibition assay (pNPP); assay type: biochemical; settings: IC50 VHX, pNPP at Km, pH 7.0, 25° C.
T4 sequence (Q9NRW4 1-184): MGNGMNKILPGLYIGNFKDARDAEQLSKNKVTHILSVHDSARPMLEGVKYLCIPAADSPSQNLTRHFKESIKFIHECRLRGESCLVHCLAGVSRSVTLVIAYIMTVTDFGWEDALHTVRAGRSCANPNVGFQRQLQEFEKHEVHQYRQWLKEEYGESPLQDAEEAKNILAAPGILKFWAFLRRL

[11] = molecular target: T5, Ssu72 (Homo sapiens, UniProt Q9NP77); assay: PTP inhibition assay (pNPP); assay type: biochemical; settings: IC50 Ssu72
T5 sequence (Q9NP77 1-194): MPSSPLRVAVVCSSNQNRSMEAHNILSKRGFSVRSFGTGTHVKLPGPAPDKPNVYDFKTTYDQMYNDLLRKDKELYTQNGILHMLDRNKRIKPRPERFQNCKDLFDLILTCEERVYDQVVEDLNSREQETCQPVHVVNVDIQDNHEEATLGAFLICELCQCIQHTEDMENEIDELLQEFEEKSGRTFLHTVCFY

[12] = molecular target: T6, PEST (Homo sapiens, UniProt Q05209); assay: PTP inhibition assay (pNPP); assay type: biochemical
T6 sequence (Q05209 1-780): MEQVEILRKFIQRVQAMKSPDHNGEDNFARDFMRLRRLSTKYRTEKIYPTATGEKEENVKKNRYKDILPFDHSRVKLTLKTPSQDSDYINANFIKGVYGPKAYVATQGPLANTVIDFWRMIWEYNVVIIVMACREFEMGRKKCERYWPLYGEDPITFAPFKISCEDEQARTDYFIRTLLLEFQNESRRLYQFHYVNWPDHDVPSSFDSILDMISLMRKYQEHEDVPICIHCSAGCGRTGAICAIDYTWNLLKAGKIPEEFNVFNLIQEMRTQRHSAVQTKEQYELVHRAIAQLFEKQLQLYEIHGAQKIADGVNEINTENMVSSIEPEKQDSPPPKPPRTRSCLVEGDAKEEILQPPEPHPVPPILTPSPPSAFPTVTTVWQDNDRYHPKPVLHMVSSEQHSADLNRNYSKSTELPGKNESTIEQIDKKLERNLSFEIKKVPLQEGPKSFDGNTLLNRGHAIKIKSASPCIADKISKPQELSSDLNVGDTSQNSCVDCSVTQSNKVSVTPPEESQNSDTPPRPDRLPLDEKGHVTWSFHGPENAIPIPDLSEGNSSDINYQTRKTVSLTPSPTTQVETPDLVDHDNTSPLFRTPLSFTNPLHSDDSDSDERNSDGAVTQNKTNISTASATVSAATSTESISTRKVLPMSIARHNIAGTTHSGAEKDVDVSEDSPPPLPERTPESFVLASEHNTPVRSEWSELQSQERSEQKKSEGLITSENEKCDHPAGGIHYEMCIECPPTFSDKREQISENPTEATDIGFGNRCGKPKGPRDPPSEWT

[13] = molecular target: T7, STEP (Homo sapiens, UniProt P54829); assay: PTP inhibition assay (pNPP); assay type: biochemical; settings: IC50 STEP, pNPP at Km, pH 7.0, 25° C.
T7 sequence (P54829 1-565): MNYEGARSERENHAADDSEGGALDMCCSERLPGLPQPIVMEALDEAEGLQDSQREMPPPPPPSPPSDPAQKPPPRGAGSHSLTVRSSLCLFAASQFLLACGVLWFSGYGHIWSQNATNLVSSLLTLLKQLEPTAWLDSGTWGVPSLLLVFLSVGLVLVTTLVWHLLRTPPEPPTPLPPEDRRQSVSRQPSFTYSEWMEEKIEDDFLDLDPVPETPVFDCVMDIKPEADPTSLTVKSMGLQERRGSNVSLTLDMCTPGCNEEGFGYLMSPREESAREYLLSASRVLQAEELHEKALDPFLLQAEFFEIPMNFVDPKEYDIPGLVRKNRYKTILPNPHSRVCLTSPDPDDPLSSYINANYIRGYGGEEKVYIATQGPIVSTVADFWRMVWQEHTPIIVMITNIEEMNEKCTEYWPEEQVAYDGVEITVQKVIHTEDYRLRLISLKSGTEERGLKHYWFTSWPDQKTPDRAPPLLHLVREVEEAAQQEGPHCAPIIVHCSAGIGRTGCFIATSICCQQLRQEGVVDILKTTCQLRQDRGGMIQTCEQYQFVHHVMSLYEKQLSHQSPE

[14] = molecular target: SHP1 (Homo sapiens, UniProt P29350); assay: PTP inhibition assay (pNPP); assay type: biochemical; settings: pNPP at Km, pH 7.0, 25° C.
[15] = molecular target: T8, Laforin (Homo sapiens, UniProt O95278); assay: PTP inhibition assay (pNPP); assay type: biochemical; settings: for IC50: pNPP at Km, pH 7.0, 25° C., read-out: IC50 Laforin
T8 sequence (O95278 1-331): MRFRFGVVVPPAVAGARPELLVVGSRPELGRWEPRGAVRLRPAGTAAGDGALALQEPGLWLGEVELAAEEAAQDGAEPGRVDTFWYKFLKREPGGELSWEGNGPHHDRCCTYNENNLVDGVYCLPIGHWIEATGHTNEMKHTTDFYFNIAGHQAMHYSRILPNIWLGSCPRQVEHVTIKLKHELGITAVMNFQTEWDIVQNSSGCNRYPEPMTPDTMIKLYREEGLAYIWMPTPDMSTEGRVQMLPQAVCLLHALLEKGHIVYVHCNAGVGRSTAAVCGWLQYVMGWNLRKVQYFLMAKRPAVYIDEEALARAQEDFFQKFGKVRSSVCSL

[16] = pNPP at Km, pH 7.0, 25° C., read-out: IC50 PEST

Sequence of SHP1 (P29350 whole entry): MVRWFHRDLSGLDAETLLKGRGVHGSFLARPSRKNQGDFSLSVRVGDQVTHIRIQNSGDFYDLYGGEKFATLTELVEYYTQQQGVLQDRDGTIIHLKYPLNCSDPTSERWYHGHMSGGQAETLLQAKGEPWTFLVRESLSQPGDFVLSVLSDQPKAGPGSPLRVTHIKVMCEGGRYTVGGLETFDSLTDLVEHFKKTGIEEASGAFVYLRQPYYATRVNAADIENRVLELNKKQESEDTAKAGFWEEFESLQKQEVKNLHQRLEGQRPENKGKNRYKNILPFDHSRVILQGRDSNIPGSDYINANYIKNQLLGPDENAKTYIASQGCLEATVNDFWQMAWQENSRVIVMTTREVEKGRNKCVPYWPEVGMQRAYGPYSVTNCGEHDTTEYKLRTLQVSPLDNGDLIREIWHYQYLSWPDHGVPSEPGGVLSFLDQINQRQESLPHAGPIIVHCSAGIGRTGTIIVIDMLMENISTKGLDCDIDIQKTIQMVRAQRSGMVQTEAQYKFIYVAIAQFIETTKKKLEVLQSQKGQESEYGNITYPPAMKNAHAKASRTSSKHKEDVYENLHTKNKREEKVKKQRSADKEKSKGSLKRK
Sequence of TbPTP1 (Q38AT7 entry or part of it): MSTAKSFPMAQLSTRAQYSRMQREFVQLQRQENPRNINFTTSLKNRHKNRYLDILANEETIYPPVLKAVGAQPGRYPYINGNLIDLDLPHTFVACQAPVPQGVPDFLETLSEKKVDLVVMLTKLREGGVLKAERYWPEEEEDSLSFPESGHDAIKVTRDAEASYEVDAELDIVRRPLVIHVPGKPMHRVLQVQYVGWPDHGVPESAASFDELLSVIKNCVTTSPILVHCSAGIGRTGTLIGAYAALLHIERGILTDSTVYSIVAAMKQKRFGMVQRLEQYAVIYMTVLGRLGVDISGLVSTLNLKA
Sequence of PTPμ (P28827 21-1452): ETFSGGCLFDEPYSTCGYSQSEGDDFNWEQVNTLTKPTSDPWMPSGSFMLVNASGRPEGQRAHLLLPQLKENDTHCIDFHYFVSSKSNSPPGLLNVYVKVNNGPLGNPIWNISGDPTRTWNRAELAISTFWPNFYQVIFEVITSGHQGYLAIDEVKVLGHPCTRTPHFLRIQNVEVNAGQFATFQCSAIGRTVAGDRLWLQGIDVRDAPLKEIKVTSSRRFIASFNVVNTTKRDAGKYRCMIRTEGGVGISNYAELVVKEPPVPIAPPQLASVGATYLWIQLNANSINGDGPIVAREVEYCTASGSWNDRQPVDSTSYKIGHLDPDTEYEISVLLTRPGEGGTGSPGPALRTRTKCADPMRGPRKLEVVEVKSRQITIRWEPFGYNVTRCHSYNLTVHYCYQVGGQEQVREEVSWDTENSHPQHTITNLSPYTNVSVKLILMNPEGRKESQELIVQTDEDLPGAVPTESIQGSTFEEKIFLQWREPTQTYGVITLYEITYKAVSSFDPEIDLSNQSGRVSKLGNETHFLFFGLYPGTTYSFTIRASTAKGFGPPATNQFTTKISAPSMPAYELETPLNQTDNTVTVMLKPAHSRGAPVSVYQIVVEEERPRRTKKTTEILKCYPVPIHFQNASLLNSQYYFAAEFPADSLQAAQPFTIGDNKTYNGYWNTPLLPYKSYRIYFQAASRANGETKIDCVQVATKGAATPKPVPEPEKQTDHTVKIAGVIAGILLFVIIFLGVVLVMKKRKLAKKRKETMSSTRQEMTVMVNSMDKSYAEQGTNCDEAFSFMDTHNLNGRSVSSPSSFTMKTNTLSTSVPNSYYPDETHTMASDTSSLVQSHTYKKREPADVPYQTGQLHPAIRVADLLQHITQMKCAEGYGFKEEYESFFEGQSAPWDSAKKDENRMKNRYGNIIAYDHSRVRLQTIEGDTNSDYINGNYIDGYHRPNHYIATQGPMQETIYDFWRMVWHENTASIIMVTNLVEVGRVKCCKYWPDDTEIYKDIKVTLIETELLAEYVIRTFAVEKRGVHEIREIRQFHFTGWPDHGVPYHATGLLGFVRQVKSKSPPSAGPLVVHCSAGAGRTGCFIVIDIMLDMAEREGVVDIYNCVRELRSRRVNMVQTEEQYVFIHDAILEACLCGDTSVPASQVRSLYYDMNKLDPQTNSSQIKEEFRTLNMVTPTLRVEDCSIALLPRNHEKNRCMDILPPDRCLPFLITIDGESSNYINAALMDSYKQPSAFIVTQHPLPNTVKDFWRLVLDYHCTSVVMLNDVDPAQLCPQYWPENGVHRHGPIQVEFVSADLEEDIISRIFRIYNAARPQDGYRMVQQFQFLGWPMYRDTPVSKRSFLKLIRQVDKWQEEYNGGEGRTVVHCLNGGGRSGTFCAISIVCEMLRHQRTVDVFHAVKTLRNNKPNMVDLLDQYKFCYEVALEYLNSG
Sequence of mPTPA (P9WIA1 whole entry): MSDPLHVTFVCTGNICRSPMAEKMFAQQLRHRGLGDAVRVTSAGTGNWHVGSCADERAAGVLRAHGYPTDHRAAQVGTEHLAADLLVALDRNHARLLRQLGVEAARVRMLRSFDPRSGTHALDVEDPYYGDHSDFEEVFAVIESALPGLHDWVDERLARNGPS
Sequence of FAP1 (Q12923 whole entry): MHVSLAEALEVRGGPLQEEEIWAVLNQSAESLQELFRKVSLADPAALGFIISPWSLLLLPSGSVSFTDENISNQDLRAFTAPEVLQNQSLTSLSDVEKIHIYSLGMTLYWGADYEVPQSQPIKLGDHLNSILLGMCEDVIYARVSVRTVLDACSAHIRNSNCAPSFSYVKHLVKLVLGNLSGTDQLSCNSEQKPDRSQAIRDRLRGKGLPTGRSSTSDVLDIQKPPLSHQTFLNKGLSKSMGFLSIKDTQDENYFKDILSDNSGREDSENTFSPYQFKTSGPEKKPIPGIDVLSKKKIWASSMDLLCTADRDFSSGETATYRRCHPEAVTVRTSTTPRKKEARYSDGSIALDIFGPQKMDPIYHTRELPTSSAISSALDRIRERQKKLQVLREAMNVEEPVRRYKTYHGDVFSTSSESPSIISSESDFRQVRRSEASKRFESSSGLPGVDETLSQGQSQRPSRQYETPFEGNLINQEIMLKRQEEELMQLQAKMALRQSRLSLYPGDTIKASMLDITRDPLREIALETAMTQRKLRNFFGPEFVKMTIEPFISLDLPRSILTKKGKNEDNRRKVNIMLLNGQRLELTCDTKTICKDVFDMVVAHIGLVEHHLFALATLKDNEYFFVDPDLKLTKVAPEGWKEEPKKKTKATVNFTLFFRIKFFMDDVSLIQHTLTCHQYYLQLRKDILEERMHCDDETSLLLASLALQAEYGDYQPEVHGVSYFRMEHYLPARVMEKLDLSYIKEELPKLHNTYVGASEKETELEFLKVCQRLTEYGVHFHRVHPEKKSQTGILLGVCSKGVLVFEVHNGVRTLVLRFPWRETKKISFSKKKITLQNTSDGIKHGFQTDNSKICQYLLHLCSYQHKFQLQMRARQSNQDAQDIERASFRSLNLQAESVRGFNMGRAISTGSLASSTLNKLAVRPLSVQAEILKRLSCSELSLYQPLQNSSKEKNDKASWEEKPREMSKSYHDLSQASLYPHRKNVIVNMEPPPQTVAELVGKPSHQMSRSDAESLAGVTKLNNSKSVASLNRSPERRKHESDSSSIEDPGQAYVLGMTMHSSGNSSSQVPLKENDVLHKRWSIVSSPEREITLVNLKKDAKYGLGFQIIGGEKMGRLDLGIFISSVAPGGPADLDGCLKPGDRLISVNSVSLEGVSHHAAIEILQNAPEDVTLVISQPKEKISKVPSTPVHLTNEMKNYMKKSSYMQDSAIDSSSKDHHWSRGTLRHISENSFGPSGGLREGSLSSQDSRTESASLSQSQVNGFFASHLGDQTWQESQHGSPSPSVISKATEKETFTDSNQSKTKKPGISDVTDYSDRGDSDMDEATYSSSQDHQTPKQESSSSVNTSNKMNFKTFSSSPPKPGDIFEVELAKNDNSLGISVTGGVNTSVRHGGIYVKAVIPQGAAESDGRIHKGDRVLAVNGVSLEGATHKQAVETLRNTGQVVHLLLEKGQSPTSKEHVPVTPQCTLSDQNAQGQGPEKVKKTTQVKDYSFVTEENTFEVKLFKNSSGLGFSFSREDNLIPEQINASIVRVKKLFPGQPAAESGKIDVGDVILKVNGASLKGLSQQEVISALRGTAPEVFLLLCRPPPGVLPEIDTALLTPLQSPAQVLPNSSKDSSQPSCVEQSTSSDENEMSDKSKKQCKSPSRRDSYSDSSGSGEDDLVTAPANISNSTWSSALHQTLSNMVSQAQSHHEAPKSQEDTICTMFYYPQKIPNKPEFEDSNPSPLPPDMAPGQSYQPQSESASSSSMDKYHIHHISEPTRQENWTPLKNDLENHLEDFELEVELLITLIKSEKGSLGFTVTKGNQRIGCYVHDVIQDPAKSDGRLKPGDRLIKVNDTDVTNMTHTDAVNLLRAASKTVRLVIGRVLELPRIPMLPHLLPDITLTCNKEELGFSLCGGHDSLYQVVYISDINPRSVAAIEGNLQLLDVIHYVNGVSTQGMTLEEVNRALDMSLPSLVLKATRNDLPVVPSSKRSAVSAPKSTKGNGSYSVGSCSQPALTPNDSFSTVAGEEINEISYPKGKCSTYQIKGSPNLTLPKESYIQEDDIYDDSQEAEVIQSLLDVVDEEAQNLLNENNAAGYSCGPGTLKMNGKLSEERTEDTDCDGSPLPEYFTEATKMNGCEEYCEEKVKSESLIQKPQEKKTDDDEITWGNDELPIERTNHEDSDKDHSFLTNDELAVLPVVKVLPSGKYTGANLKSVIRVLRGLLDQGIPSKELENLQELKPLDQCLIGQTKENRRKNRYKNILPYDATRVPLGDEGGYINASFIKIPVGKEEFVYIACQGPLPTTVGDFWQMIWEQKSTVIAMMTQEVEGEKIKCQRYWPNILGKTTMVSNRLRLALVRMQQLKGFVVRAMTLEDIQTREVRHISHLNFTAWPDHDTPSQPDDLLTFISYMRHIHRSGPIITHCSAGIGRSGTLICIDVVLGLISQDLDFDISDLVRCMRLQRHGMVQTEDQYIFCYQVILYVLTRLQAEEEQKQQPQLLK

O=C(CS(=O)(=O)O)Nc1ccc(N2CCOCC2)cc1
IC50 [1]: 2.2 µM
IC50 ([2]; pNPP at Km, pH 7.0, 25° C.): 63 µM

O=C(Nc1ccc(NC(=O)C(c2ccccc2)S(=O)(=O)O)cc1)C(=O)Nc1ccc(-c2cccs2)cc1 (stereo not drawn) [Compound 3, 2-oxo-2-((4-(2-oxo-2-((4-(thiophen-2-yl)phenyl)amino)acetamido)phenyl)amino)-1-phenylethanesulfonic acid]
IC50 [3]: > 10 µM
IC50 [4]: 0.9 µM
H1975 cell proliferation (MTT) [5]: no significant effect
IC50 [6]: > 10 µM

O=C(Nc1ccc(NC(=O)C(c2ccccc2)S(=O)(=O)O)cc1)C(=O)Nc1cc(-c2ccc(Br)cc2)n[nH]1 (stereo not drawn) [Compound 4, 2-((4-(2-((3-(4-bromophenyl)-1H-pyrazol-5-yl)amino)-2-oxoacetamido)phenyl)amino)-2-oxo-1-phenylethanesulfonic acid]
IC50 [3]: > 10 µM
IC50 [4]: 0.73 ± 0.02 µM
Fold selectivity for SHP2 against PTPs examined ([4]; cefsulodin: with the exception of SHP1): ≥ 8 fold
H1975 cell proliferation (MTT) [5]: no significant effect
IC50 [6]: > 10 µM

CC(C)c1ccc(NC(=O)C(=O)Nc2ccc(NC(=O)C(c3ccccc3)S(=O)(=O)O)cc2)cc1 (stereo not drawn) [Compound 6, 2-((4-(2-((4-isopropylphenyl)amino)-2-oxoacetamido)phenyl)amino)-2-oxo-1-phenylethanesulfonic acid]
IC50 [4]: 2.33 ± 0.04 µM
H1975 cell proliferation (MTT) [5]: reduce H1975 cell proliferation in a dose dependent manner; also recorded: significantly (**p<0.01) reduced cell proliferation
MDA-MB-231 cell survival/growth (MTT) [7]: significantly (**p<0.01) reduced cell survival

O=C(Nc1ccc(OCc2ccccc2)c(Cl)c1)C(=O)Nc1ccccc1NC(=O)C(c1ccccc1)S(=O)(=O)O (stereo not drawn) [Compound L319-21-M50]
IC50 ([8]; pNPP at Km, read-out: IC50 TbPTP1): > 50 µM
IC50 [9]: 39 µM
IC50 [10]: > 50 µM
IC50 [11]: > 50 µM
IC50 ([12]; IC50 PEST): > 50 µM

O=C(Nc1ccc(-n2ccnc2)cc1)C(c1ccccc1)S(=O)(=O)O (stereo not drawn) [Compound L319M63]
IC50 ([8]; IC50 TbPTP1, pNPP at Km): > 100 µM
IC50 [13]: > 100 µM
IC50 [10]: > 200 µM
IC50 ([2]; pH 7): 7.7 µM
IC50 [14]: > 200 µM

O=C(Nc1nnc(-c2ccccc2)s1)C(c1ccccc1)S(=O)(=O)O (stereo not drawn) [Compound L319M73-2]
IC50 ([2]; pNPP at Km, pH 7.0, 25° C.): 10.2 µM
IC50 [15]: 1.3 µM
Fold specificity for Laforin over LMPTP ([15]; ratio of IC50): 8 fold
Fold specificity for Laforin over other PTPs ([15]; ratio of IC50): 100 fold
IC50 [12, 16]: > 200 µM

O=C(O)Cc1csc(NC(=O)C(c2ccccc2)S(=O)(=O)O)n1 (stereo not drawn) [Compound L319N72]
IC50 ([2]; pNPP at Km, pH 7.0, 25° C.): 98.1 µM
IC50 [15]: 4.8 µM
IC50 [12, 16]: > 200 µM

CO[C@@]1(NC(=O)C(C(=O)O)c2ccc(O)cc2)C(=O)N2C(C(=O)O)=C(CSc3nnnn3C)CO[C@@H]21 (stereo partly drawn) [moxalactam, reference compound]
IC50 [14]: 170 µM
